Assays:
Format in all cases: cell-based
[1] = system: 11 different gram-positive and gram-negative bacteria as well as 7 different fungi, in total 18 microbes; test: Combination antimicrobial % efficacy in comparison to silver (MIC, MBC/MFC, MBIC averaged); conditions: molar ratios Zinc 1:Carvacrol 3:Resveratrol 1:THC 0.1:CBD 0.1, averaged over all microbes and MIC, minimum of three biological repeats
Source text: Samples of 11 different gram-positive and gram-negative bacteria as well as 7 different fungi, in total 18 microbes included Pseudomonas aeruginosa ATCC 27853, Pseudomonas aeruginosa PAO1, Klebsiella pneumoniae ATCC 11296, Staphylococcus aureus ATCC 25923, Methicillin resistant S. aureus (MRSA) ATCC 33591, Escherichia coli ATCC 25922,Enterococcus faecium ATCC 19434, Staphylococcus epidermidis ATCC 12228, Enterococcus faecalis ATCC 29212, Proteus mirabilisATCC 35659, Acinetobacter baumannii CDC strain AR Bank #0033, Candida albicans ATCC 90028, Candida glabrata ATCC 2001, Candida parasilosis ATCC 22019, Candida krusei ATCC 14243, Candida tropicalis ATCC 13803, Candida auris ATCC MYA-5002, Aspergillus fumigatusATCC 16404 were used.
Metal (loid)-based antimicrobials (MBAs) including, silver nitrate (AgNO3, Sigma-Aldrich, St Louis, MO, USA Lot #M3259), potassium tellurite (K2TeO3, Sigma-Aldrich, St Louis, MO, USA, Cat #P2358-12C), hydrogen tetrachloroaurate (III) trihydrate (AuCl4.3H2O, Alfa Acsar Tweksbury, MA, USA, Lot #U17G046), zinc oxide nanoparticles, <100 nm (Sigma Aldrich), zinc sulfate (ZnSO4·1H2O), and zinc sulfate (ZnSO4.7H2O) were received from Fisher Scientific (Fair Lawn, NJ, USA, Lot #723689). […]
Planktonic Susceptibility. […] MIC was determined based on visible bacterial growth. […]

[2] = system: bacteria/fungi samples from Example 1; test: Planktonic susceptibility, MIC and MBC in 96-well microtiter plates; conditions: averaged results
Experimental: Planktonic Susceptibility. Testing of planktonic susceptibility was conducted using MIC and MBC assessments on bacterial strains using 96-well microtiter plates. To prepare the wells for bacteria, serial dilutions of the antibacterial agents were Carried out along the rows of two microtiter plates. The antibacterials were 2-fold diluted with Mueller-Hinton broth (MHB) in each column, reaching a volume of 75 μL. The 1.0 McFarland standard was diluted 15-fold in MHB, and 75 μL of inoculum was added to the wells treated with antibacterials, resulting in a total volume of 150 μL. The microtiter plates were covered, then shake-incubated overnight at 150 rpm and 37° C. MIC was determined based on visible bacterial growth. In cases of Antibacterial opacity or ambiguous results, streaking of well cultures on Mueller-Hinton agar (MHA), overnight incubation, and subsequent comparison to controls were performed. MBC was determined by transferring 3 u L of culture from all MIC microtiter plate wells to 147 μL of MHB in fresh plates. These plates were shake-incubated overnight at 150 rpm and 37° C., and bacterial growth was visually inspected. Combination Antimicrobial Efficacy Testing. This checkerboard (96-well microtiter plates) included one column just media without bacteria/fungi and MBAs/PBCs (as a negative control), and one column without MBA/PBCs, with media, and bacteria/fungi (as a growth and positive controls control), MBAs and/or PBCs were diluted ½ across the rows (19, 20). For each analysis, the same MIC and MBC/MFC steps indicated above were conducted for surveying the bacteriostatic, bactericidal, and reading synergism effects of MBAs with PBCs combinations.
Samples from Example 1 were tested using combinations of additives as well as additives on their own for measuring bacteriostatic effects, bactericidal effects and biofilm inhibition properties.
Method of bacteriostatic effects, bactericidal effects explained in example 1 using MIC and MBC methods, respectively.

[3] = system: bacteria/candida biofilm (samples from Example 1); test: Prevention of biofilm formation, MBIC by crystal violet assay; conditions: 48 hours at 37° C.; averaged results; unit not given
Experimental: For the prevention of biofilm formation, desired concentrations of metals (loid) and/or PBCs were added to 96 wells, with 1.0×10^6 CFU/ml bacteria/candida added to each well. The plates were then incubated for 48 hours at 37° C. in a microplate shaker incubator at 150 rpm. Afterward, the planktonic cells and spent medium were discarded, and the adhered biomass was rinsed twice with distilled water. Biofilm biomass and minimum biofilm inhibitory concentration (MBIC) were determined using the crystal violet assay. The well with no bacterial biofilm and an OD600 absorption of zero was considered the MBIC. Results from at least three separate biological replicates were averaged.
In the crystal violet assay, the microplates or Calgary biofilm device were rinsed twice with 200 μl of 0.9% saline, then stained with 200 μl of a 0.1% crystal violet solution for 30minutes. Following staining, the microplates and pegs were washed three times with 200 μl of ddH2O to remove excess dye. Biofilm quantification was performed by sonication using a 250HT™ ultrasonic cleaner (VWR International) set at 60 Hz for 10 minutes into 200 μl of 70% ethanol, and absorbance was read at 600 nm using 70% ethanol as the blank.

microbes = test: Evaluation of zinc sources for antimicrobial properties; conditions: comparison of zinc sources

For `Cc1ccc(C(C)C)cc1O` [Carvacrol, 5-Isopropyl-2-methylphenol], the “Total antimicrobial efficacy percent over silver alone, including Antibacterial and antibiofilm efficacy (%)” value [1] was 1.3%.
For `C[N+](C)(C)CC(=O)O` [Betaine (0.1%), Betaine], the Bactericidal (MBC) ([2]; unit inferred, unit assumed) was 1 µg/mL, the Bacteriostatic (MIC) ([2]; unit inferred, unit assumed) was 1 µg/mL and the “Biofilm Inhibition (MBIC)” value [3] was 1.
In the case of `OO` [H2O2 (1.5%), hydrogen peroxide], the Bactericidal (MBC) ([2]; unit inferred, unit assumed) is reported as 0.5 µg/mL, the Bacteriostatic (MIC) ([2]; unit inferred, unit assumed) is reported as 0.5 µg/mL and the “Biofilm Inhibition (MBIC)” value [3] is reported as 0.5.
`OO` [H2O2 (3%), hydrogen peroxide] was tested, and the Bactericidal (MBC) ([2]; unit inferred, unit assumed) was 0.5 µg/mL, the Bacteriostatic (MIC) ([2]; unit inferred, unit assumed) was 0.25 µg/mL and the “Biofilm Inhibition (MBIC)” value [3] was 0.5.
For “benzalkonium chloride [Liquid BZK (0.1%)]”, the Bacteriostatic (MIC) ([2]; unit inferred, unit assumed) was 0.25 µg/mL, the “Bactericidal (MBC)” value ([2]; unit not given) was “(0.25-0.5)” and the “Biofilm Inhibition (MBIC)” value [3] was “(0.25-0.5)”.
For `O.O.O.O.O.O.O.O=S(=O)([O-])[O-].[Zn+2]` [zinc sulfate heptahydrate], the “Antimicrobial effects of zinc source (in words)” value (microbes) was “comparable to zinc sulfate monohydrate”.
